Data: US11623919B2, “Heterocyclic P2X7 antagonists” (AXXAM S.P.A., priority 2017, dated 2023)

What was measured:
Assay type in all cases: cell-based
P2X7 receptor [1] = biological target: T1, P2X7 receptor (Homo sapiens, UniProt Q99572); experiment: YO-PRO-1 uptake assay; design: expressed in transfected cells; settings: HEK-293 cells stably transfected with P2X7 receptor; Bz-ATP EC80 (30 μM); Low Divalent Cation Assay Buffer
T1 sequence (Q99572 1-595): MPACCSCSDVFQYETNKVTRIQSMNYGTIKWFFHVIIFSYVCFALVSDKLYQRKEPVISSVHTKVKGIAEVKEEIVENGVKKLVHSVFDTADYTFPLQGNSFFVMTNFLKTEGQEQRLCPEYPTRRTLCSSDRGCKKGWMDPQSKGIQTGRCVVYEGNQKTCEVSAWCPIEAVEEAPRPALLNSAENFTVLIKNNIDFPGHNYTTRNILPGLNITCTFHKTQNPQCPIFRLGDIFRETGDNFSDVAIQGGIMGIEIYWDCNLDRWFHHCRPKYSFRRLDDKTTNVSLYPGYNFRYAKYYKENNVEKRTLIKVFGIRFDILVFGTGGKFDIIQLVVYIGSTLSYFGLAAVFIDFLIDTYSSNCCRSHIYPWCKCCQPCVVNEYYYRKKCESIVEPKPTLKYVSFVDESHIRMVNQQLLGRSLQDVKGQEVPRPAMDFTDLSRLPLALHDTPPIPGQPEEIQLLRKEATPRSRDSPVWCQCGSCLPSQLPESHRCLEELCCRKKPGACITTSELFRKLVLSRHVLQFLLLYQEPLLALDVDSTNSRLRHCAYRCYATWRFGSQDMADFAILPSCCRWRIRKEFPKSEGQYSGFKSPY
From the text: YO-PRO®-1 is a fluorescent DNA-binding dye with a MW of 374 Da (Molecular Probes®, cat. Y3603). This method is based upon the presumed ability of YO-PRO®-1 to enter through the dilated or “large pore form” of P2X7 receptor and to bind to intracellular DNA whereupon it increases many fold its fluorescence intensity. The dye ha an absorption spectrum compatible with excitation at 488 nm by argon laser sources and its emission wavelength is in the range of 515-575 nm. The aim of this assay was to validate the interaction of antagonists with P2X7 receptor using an alternative readout to Ca2+-sensitive fluorescent dyes.
HEK-293 cells stably transfected with P2X7 receptor were seeded overnight un growth medium at 20,000 cell/well in 384-well plate. 24 hours later, the medium was removed, the cells were washed with Low Divalent Cation Assay Buffer (0.3 mM Ca^2+ and 0 mM Mg^2+) and then pre-loaded with 20 μL/w of 5 μM YO-PRO®-1 dye.
FLIPRTETRA fluorescence measurement immediately started. Then 10 μL/w of test compounds and reference antagonist A438079 at 3×-concentration were injected with the FLIPRTETRA and the kinetic response over a period of five minutes was monitored. A second injection of 10 μL/w of 3× Bz-ATP EC80 (30 μM) was performed with the FLIPRTETRA and the signal of the emitted fluorescence was recorded for additional 60 minutes. All the experiment was carried out with a Low Divalent Cation Assay Buffer (0.3 mM Ca^2+ and 0 mM Mg^2+).
The effect of the test compounds was measured as percent inhibition vs the reference antagonist and IC50 values were calculated accordingly.

P2X7 receptor [2] = biological target: T1, P2X7 receptor; experiment: Automated patch-clamp (QPatch16X) P2X7 channel assay; design: expressed in transfected cells; host or cells: HEK-293; settings: HEK-293 cells expressing P2X7 channels; whole-cell, held at -80 mV; 100 microM BzATP; compound 1, 10, 100 and 1000 nM; read-out: Q-Patch (IC50)
Procedure: In order to directly monitor the block of P2X7 channel, an electrophysiological assay was developed and implemented on the QPatch16X automated electrophysiology instrument.
HEK-293 cells expressing the P2X7 channels were cultured in modified EMEM.
72 hours before experiment, 5 million cells were seeded onto T225 flasks. Just before the experiment cells were washed twice, detached from the flask with trypsin-EDTA, re-suspended in the suspension solution and placed on the QPatch 16x.
The compounds (20 mM in a 100% DMSO) stored at −20° C. were prepared the day of the experiment (a first dilution 1:20 in 100% DMSO to prepare a 1 mM stock solution, then a 1 microM solution in external solution+a serial dilution 1:10).
The standard whole-cell voltage clamp experiments were performed at room temperature. From these experiments the multihole technology was used and the data were sampled at 2 KHz.
The intracellular solution contained (mM) 135 CsF, 10 NaCl, 1 EGTA, 10 HEPES, (pH 7.2 with CsOH) whereas the extracellular contained (mM) 145 NaCl, 4 KCl, 0.5 MgCl2, 1 CaCl2, 10 HEPES, 10 Glc (pH 7.4 with NaOH).
After establishment of the seal and the passage in the whole cell configuration, the cells were held at −80 mV. The P2XR7 current was evoked by applying 100 microM of BzATP alone (4 times) and then in the presence increasing concentrations of the compound under investigation (1, 10, 100 and 1000 nM).
The pre-incubation periods 5 to 8 contain increasing concentrations of the compound of interest (1, 10, 100 and 1000 nM), as illustrated in FIGURE (application protocol).
The maximal inward current evoked by BzATP in absence or presence of increasing concentrations of the compounds under investigation was measured and normalized. The potential […] effect was measured as % of control and as IC50 determined fitting the dose-response curves data with the following equation: Y=100/(1+10^((Log IC50−X)*HillSlope))

P2X7 receptor [3] = biological target: T1, P2X7 receptor; experiment: Screen Quest Fluo-8 No Wash Calcium Assay (Bz-ATP evoked Ca2+ influx, FLIPR); design: hP2X7 (IC50; nM); other: hP2X7; HEK-293 cells stably transfected with P2X7 receptor, Bz-ATP at EC80, Fluo-8 NW; potency; settings: hP2X7; HEK-293 cells stably transfected with P2X7 receptor, Bz-ATP at EC80, Fluo-8 NW; potency ranges A-D
In short: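 Compounds were added to Fluo-8-loaded P2X7-transfected HEK-293 cells 5 min before an EC80 Bz-ATP challenge, and Ca2+ influx was then recorded for 3 min. Buffer held 0.3 mM Ca2+ and no Mg2+. Inhibition was normalised to A438079, giving IC50 values.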

| SMILES | IC50 (P2X7 receptor [1]) | IC50 (P2X7 receptor [2]) | IC50 (P2X7 receptor [3]) |
| --- | --- | --- | --- |
| O=c1onc(Cc2ccccc2Cl)n1Cc1ccc(F)cc1 [Example 76, 3-[(2-chlorophenyl)methyl]-4-[(4-fluorophenyl)methyl]-4,5-dihydro-1,2,4-oxadiazol-5-one] | 168 nM | 0.401 µM | 200 to 1000 nM |
| O=c1onc(Cc2ccccc2Cl)n1CC1CCCCC1 [Example 117, 3-[(2-chlorophenyl)methyl]-4-(cyclohexylmethyl)-4,5-dihydro-1,2,4-oxadiazol-5-one] | 143 nM | 0.0949 µM | 200 to 1000 nM |
| Cc1cc(F)ccc1Cn1c(Cc2c(F)cccc2Cl)noc1=O [Example 25, 3-[(2-chloro-6-fluorophenyl)methyl]-4-[(4-fluoro-2-methylphenyl)methyl]-4,5-dihydro-1,2,4-oxadiazol-5-one] | 115 nM | 0.0511 µM | < 200 nM |
| O=c1onc(Cc2ccccc2F)n1CC1CCCCC1 [Example 120, 4-(cyclohexylmethyl)-3-[(2-fluorophenyl)methyl]-4,5-dihydro-1,2,4-oxadiazol-5-one] | 590 nM | 0.162 µM | 200 to 1000 nM |
| O=c1onc(Cc2ccc(F)cc2F)n1CC1CCCCC1 [Example 119, 4-(cyclohexylmethyl)-3-[(2,4-difluorophenyl)methyl]-4,5-dihydro-1,2,4-oxadiazol-5-one] | 547 nM | 0.268 µM | 200 to 1000 nM |
| O=c1onc(CC2CCCCC2)n1Cc1c(F)cccc1Cl [Example 130, 4-[(2-chloro-6-fluorophenyl)methyl]-3-(cyclohexylmethyl)-4,5-dihydro-1,2,4-oxadiazol-5-one] | 233 nM | 0.0948 µM | 200 to 1000 nM |
| O=c1onc(Cc2c(F)cccc2Cl)n1CC1(F)CCCCC1 [Example 96, 3-[(2-chloro-6-fluorophenyl)methyl]-4-[(1-fluorocyclohexyl)methyl]-4,5-dihydro-1,2,4-oxadiazol-5-one] | 523 nM | 0.245 µM | 200 to 1000 nM |
| O=c1onc(Cc2cccc(F)c2)n1Cc1c(F)cccc1Cl [Example 81, 4-[(2-chloro-6-fluorophenyl)methyl]-3-[(3-fluorophenyl)methyl]-4,5-dihydro-1,2,4-oxadiazol-5-one] | 619 nM | 0.292 µM | 200 to 1000 nM |
| O=c1onc(Cc2c(F)cccc2Cl)n1CCC1CCCCC1 [Example 142, 3-(2-chloro-6-fluorobenzyl)-4-(2-cyclohexylethyl)-1,2,4-oxadiazol-5(4H)-one] | 467 nM | 0.153 µM | 200 to 1000 nM |
| CC(c1ccc(F)cc1)n1c(Cc2c(F)cccc2Cl)noc1=O (stereo not drawn) [Example 48, 3-[(2-chloro-6-fluorophenyl)methyl]-4-[1-(4-fluorophenyl)ethyl]-4,5-dihydro-1,2,4-oxadiazol-5-one] | 340 nM | 0.386 µM | 200 to 1000 nM |

The remaining molecules from weak to strong by IC50 (P2X7 receptor [1]), led by results:

| IC50 (P2X7 receptor [1]) | IC50 (P2X7 receptor [2]) | IC50 (P2X7 receptor [3]) | SMILES |
| --- | --- | --- | --- |
| 618 nM | 1.09 µM | 200 to 1000 nM | O=c1onc(Cc2ccc(Cl)cc2Cl)n1CC1CCCCC1 [Example 118, 4-(cyclohexylmethyl)-3-[(2,4-dichlorophenyl)methyl]-4,5-dihydro-1,2,4-oxadiazol-5-one] |
| 318 nM | 0.348 µM | 200 to 1000 nM | O=c1onc(Cc2c(F)cccc2Cl)n1Cc1ccc(Cl)cc1 [Example 65, 3-[(2-chloro-6-fluorophenyl)methyl]-4-[(4-chlorophenyl)methyl]-4,5-dihydro-1,2,4-oxadiazol-5-one] |
| 284 nM | 0.466 µM | 200 to 1000 nM | O=c1onc(Cc2ccccc2C(F)(F)F)n1CC1CCCCC1 [Example 116, 4-(cyclohexylmethyl)-3-{[2-(trifluoromethyl)phenyl]methyl}-4,5-dihydro-1,2,4-oxadiazol-5-one] |
| 131 nM | 0.167 µM | < 200 nM | O=c1onc(Cc2c(F)cccc2Cl)n1CC1CCCC1 [Example 85, 3-[(2-chloro-6-fluorophenyl)methyl]-4-(cyclopentylmethyl)-4,5-dihydro-1,2,4-oxadiazol-5-one] |
| 82 nM | 0.0441 µM | < 200 nM | CC1CCCCC1Cn1c(Cc2c(F)cccc2Cl)noc1=O (stereo not drawn) [Example 87, 3-[(2-chloro-6-fluorophenyl)methyl]-4-[(2-methylcyclohexyl)methyl]-4,5-dihydro-1,2,4-oxadiazol-5-one] |
| 50 nM | 0.0338 µM | 200 to 1000 nM | O=c1onc(Cc2c(F)cccc2Cl)n1Cc1ccc(F)cc1 [Example 55, 3-[(2-chloro-6-fluorophenyl)methyl]-4-[(4-fluorophenyl)methyl]-4,5-dihydro-1,2,4-oxadiazol-5-one] |
| 45 nM | 0.022 µM | < 200 nM | O=c1onc(Cc2c(F)cccc2Cl)n1CC12CCC(CC1)C2 [Example 91, 4-{bicyclo [2.2.1]heptan-1-ylmethyl}-3-[(2-chloro-6-fluorophenyl)methyl]-4,5-dihydro-1,2,4-oxadiazol-5-one] |
| 42 nM | 0.0181 µM | < 200 nM | O=c1onc(Cc2c(F)cccc2Cl)n1CC1CCCCCC1 [Example 92, 3-[(2-chloro-6-fluorophenyl)methyl]-4-(cycloheptylmethyl)-4,5-dihydro-1,2,4-oxadiazol-5-one] |
| 31 nM | 0.00304 µM | < 200 nM | O=c1snc(Cc2c(F)cccc2Cl)n1CC1CCC(F)(F)CC1 [Example 141, 3-[(2-chloro-6-fluorophenyl)methyl]-4-[(4,4-difluorocyclohexyl)methyl]-4,5-dihydro-1,2,4-thiadiazol-5-one] |
| 30 nM | 0.0214 µM | < 200 nM | O=c1onc(Cc2c(F)cccc2Cl)n1CC1CCCCC1 [Example 82, 3-[(2-chloro-6-fluorophenyl)methyl]-4-(cyclohexylmethyl)-4,5-dihydro-1,2,4-oxadiazol-5-one] |
